Assay results taken from article PMC11308155 (Microbial Cell Factories, 2024).
Converted amounts (≈) assume the structure as drawn. Each block holds one molecule with its values, some of them ahead of it.

What was measured:
[1] = tested on: K. pneumoniae clinical isolates; assay: MIC by broth microdilution against clinical isolates of K. pneumoniae; type: cell-based; conditions: for MIC range: K. pneumoniae clinical isolates, 25 isolates
[2] = tested on: E. coli clinical isolates; assay: MIC by broth microdilution against clinical isolates of E. coli; type: cell-based
[3] = tested on: CTX-M-15-producer isogenic strain; assay: Disc diffusion test, CTX-M-15-producer; type: cell-based, E. coli; conditions: cefotaxime disc 30 µg
CTX-M-15 [4] = target: CTX-M-15 (Escherichia coli, UniProt Q9EXV5); assay: Purified β-lactamase inhibition assay with nitrocefin, CTX-M-15; type: biochemical, E. coli
KPC-2 = KPC-2 (Klebsiella pneumoniae, UniProt Q9F663); assay: Purified β-lactamase inhibition assay with nitrocefin, KPC-2; type: biochemical, K. pneumoniae
[5] = tested on: isogenic strain producing CTX-M-15; assay: Time-kill kinetic assay, CTX-M-15-producing isogenic strain; type: cell-based, E. coli; conditions: cefotaxime 2 µg/mL + inhibitor 4 µg/mL; CTX-M-15 strain
[6] = tested on: isogenic strain producing KPC-2; assay: Time-kill kinetic assay, KPC-2-producing isogenic strain; type: cell-based, E. coli; conditions: imipenem 4 µg/mL + inhibitor 4 µg/mL, KPC-2 strain
CTX-M-15 [7] = conditions: ref 17 (Faheem et al.); cited from earlier work
[8] = tested on: KPC-2-producer isogenic strain; assay: Disc diffusion test, KPC-2-producer; type: cell-based, E. coli; conditions: imipenem disc 10 µg

Chain of CTX-M-15 (Escherichia coli, UniProt Q9EXV5) (Q9EXV5 29-291): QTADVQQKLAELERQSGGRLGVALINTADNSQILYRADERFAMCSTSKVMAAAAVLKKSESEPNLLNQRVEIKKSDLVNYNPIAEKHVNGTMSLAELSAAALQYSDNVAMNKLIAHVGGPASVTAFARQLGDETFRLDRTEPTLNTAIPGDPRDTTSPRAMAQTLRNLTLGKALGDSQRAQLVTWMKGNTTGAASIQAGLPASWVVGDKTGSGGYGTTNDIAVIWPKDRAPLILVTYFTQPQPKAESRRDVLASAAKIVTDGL
Chain of KPC-2 (Q9F663 25-293, looked up): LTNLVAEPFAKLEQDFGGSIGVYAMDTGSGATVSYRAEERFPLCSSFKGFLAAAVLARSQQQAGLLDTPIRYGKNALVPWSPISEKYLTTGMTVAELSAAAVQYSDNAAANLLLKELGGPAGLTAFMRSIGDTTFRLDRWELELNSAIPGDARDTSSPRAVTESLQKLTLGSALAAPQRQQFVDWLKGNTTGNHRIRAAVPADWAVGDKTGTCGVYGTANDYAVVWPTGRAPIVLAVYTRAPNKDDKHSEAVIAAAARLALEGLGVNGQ

- MIC range [1]: 8 to 256 µg/mL
- MIC range ([1]; listed as ertapenem): 8 to 256 µg/mL
- MIC90 ([1]; Klebsiella pneumoniae): 32 µg/mL (≈ 67.3 µM)
Compound: C[C@@H](O)[C@H]1C(=O)N2C(C(=O)O)=C(S[C@@H]3CN[C@H](C(=O)Nc4cccc(C(=O)O)c4)C3)[C@H](C)[C@H]12 [Ertapenem, ertapenem]

Compound: CO/N=C(\C(=O)N[C@@H]1C(=O)N2C(C(=O)O)=C(COC(C)=O)CS[C@H]12)c1csc(N)n1 [Cefotaxime, cefotaxime]
- MIC range ([2]; E. coli clinical isolates, 25 isolates): 64 to 128 µg/mL
- disc diffusion result, antibiotic disc only [3]: resistance

- MIC90 ([2]; Escherichia coli): 512 µg/mL (≈ 1470 µM)
Compound: CC1=C(C(=O)O)N2C(=O)[C@@H](NC(=O)[C@H](N)c3ccccc3)[C@H]2SC1 [Cefalexin, cefalexin]

Compound: C[C@]1(Cn2ccnn2)[C@H](C(=O)O)N2C(=O)C[C@H]2S1(=O)=O [Tazobactam, tazobactam]
- IC50 (CTX-M-15 [4]): 58.3 µM
- Ki (CTX-M-15 [4]; Ki, CTX-M-15, nitrocefin substrate): ~31 µM
- IC50 (KPC-2): 69.6 µM
- Ki (KPC-2): 29.2 µM
- incubation time after which viable count was below the limit of detection [5]: 6 h
- incubation time after which viable count was below the limit of detection [6]: 8 h
- decrease of the MICs of some cephalosporin antibiotics (CTX-M-15 [7]): 2–16 folds

Compound: C[C@@H](O)[C@H]1C(=O)N2C(C(=O)O)=C(SCCN=CN)C[C@H]12 [Imipenem, imipenem]
- MIC range [1]: 64 to 512 µg/mL
- disc diffusion result, antibiotic disc only [8]: resistance

Compound: O=C(O)[C@H]1/C(=C/CO)O[C@@H]2CC(=O)N21 [Clavulanic acid, clavulanic acid]
- incubation time after which viable count was below the limit of detection [5]: 10 h
- reduction in CFU ([6]; after 6 h of incubation): 2 log10
